# Measured values reported in US20260285850A1, “SUBSTITUTED OXAZOLIDINONES AND IMIDAZOLINONES AS HERBICIDES” (FMC CORPORATION, priority 2023, published 2026).
# Tests used:
# Format in all cases: in vivo
# [1] = tested on: galium (catchweed bedstraw, Galium aparine); assay: Test A postemergence application, visual injury rating 0-100
# Outline: (§1)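 Loam-sand pots got test material in surfactant-containing solvent, either as a directed soil spray before emergence or on plants at the one- to two-leaf stage. Visual injury (0-100) was read after ten greenhouse days.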
# [2] = tested on: barnyardgrass (Echinochloa crus-galli); assay: as above
# Outline: as §1
# corn (Zea mays) [3] = assay: as above
# Outline: as §1
# [4] = tested on: blackgrass (Alopecurus myosuroides); assay: as above
# Outline: as §1
# [5] = tested on: ragweed (common ragweed, Ambrosia artemisiifolia); assay: as above
# Outline: as §1
# [6] = tested on: ryegrass, Italian (italian ryegrass, Lolium multiflorum); assay: as above
# Outline: as §1
# [7] = tested on: horseweed (Erigeron canadensis); assay: as above
# Outline: as §1
# [8] = tested on: wheat (Triticum aestivum); assay: as above
# Outline: as §1
# [9] = tested on: palmer (palmer amaranth, palmer pigweed, Amaranthus palmeri); assay: as above
# Outline: as §1
# [10] = tested on: green foxtail (Setaria viridis); assay: as above
# Outline: as §1
# [11] = tested on: oat, wild (wild oat, Avena fatua); assay: as above
# Outline: as §1
# kochia (Bassia scoparia) [12] = assay: as above
# Outline: as §1
# soybean (Glycine max) [13] = assay: as above
# Outline: as §1
# [14] = tested on: barnyardgrass (Echinochloa crus-galli); assay: Test A preemergence soil spray, visual injury rating 0-100; conditions: 10 days
# Outline: as §1
# corn (Zea mays) [15] = assay: as above; conditions: 10 days
# Outline: as §1
# [16] = tested on: blackgrass (Alopecurus myosuroides); assay: as above; conditions: 10 days
# Outline: as §1
# [17] = tested on: ragweed (common ragweed, Ambrosia artemisiifolia); assay: as above; conditions: 10 days
# Outline: as §1
# [18] = tested on: ryegrass, Italian (italian ryegrass, Lolium multiflorum); assay: as above; conditions: 10 days
# Outline: as §1
# [19] = tested on: wheat (Triticum aestivum); assay: as above; conditions: 10 days
# Outline: as §1
# [20] = tested on: green foxtail (Setaria viridis); assay: as above; conditions: 10 days
# Outline: as §1
# [21] = tested on: oat, wild (wild oat, Avena fatua); assay: as above; conditions: 10 days
# Outline: as §1
# kochia (Bassia scoparia) [22] = assay: as above; conditions: 10 days
# Outline: as §1
# soybean (Glycine max) [23] = assay: as above; conditions: 10 days
# Outline: as §1
# rice (Oryza sativa) = assay: Test B flooded paddy test, visual plant response rating 0-100; conditions: 250 g ai/ha, Flood, applied to paddy water, evaluated after 13 days
# Outline: (§2)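 Compounds applied to standing paddy water (3 cm above soil, maintained for the test duration) on 2-leaf-stage plants; visual rating vs controls at 13 days, greenhouse.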
# [24] = tested on: ducksalad (Heteranthera limosa); assay: as above; conditions: 250 g ai/ha, Flood, applied to paddy water, evaluated after 13 days
# Outline: as §2
# [25] = tested on: sedge, umbrella (small-flower umbrella sedge, Cyperus difformis); assay: as above; conditions: 250 g ai/ha, Flood, applied to paddy water, evaluated after 13 days
# Outline: as §2
# [26] = tested on: barnyardgrass (Echinochloa crusgalli); assay: as above; conditions: 250 g ai/ha, Flood, applied to paddy water, evaluated after 13 days
# Outline: as §2
# [27] = 62 g ai/ha, postemergence, 10 days, 0 = no effect, 100 = complete control
# [28] = Postemergence, 16 g ai/ha, greenhouse 10 days, 0 no effect, 100 complete control
# [29] = 62 g ai/ha, 0 = no effect, 100 = complete control
smiles,measurement,setting,value
CSCCOC(=O)C1=CCC(NC(=O)C2(C)CN(c3cc(F)cc(Cl)c3)C(=O)O2)C1 (centres unmarked) [Compound 135],Galium plant response rating (0-100),[1]; [27],80
same,Galium plant response rating (0 to 100 scale),[1]; [28],70
same,Barnyardgrass plant response rating (0-100),[2]; [27],100
same,Barnyardgrass plant response rating (0 to 100 scale),[2]; [28],100
same,Corn plant response rating (0-100),corn (Zea mays) [3]; [27],100
same,Corn plant response rating (0 to 100 scale),corn (Zea mays) [3]; [28],100
same,Blackgrass plant response rating (0-100),[4]; [27],100
same,Blackgrass plant response rating (0 to 100 scale),[4]; [28],90
same,Ragweed plant response rating (0-100),[5]; [27],70
same,Ragweed plant response rating (0 to 100 scale),[5]; [28],40
same,"Ryegrass, Italian plant response rating (0-100)",[6]; [27],90
same,"Ryegrass, Italian plant response rating (0 to 100 scale)",[6]; [28],40
same,Horseweed plant response rating (0-100),[7]; [27],90
same,Horseweed plant response rating (0 to 100 scale),[7]; [28],70
same,Wheat plant response rating (0-100),[8]; [27],90
same,Wheat plant response rating (0 to 100 scale),[8]; [28],80
same,"Pigweed, Palmer plant response rating (0-100)",[9]; [27],90
same,"Pigweed, Palmer plant response rating (0 to 100 scale)",[9]; [28],70
same,"Foxtail, Green plant response rating (0-100)",[10]; [27],90
same,"Foxtail, Green plant response rating (0 to 100 scale)",[10]; [28],90
same,"Oat, Wild plant response rating (0-100)",[11]; [27],90
same,"Oat, Wild plant response rating (0 to 100 scale)",[11]; [28],30
same,Kochia plant response rating (0-100),kochia (Bassia scoparia) [12]; [27],90
same,Kochia plant response rating (0 to 100 scale),kochia (Bassia scoparia) [12]; [28],90
same,Soybean plant response rating (0-100),soybean (Glycine max) [13]; [27],80
same,Soybean plant response rating (0 to 100 scale),soybean (Glycine max) [13]; [28],60
same,Barnyardgrass plant response rating,"[14]; 16 g ai/ha, 0 to 100 scale",20
same,Barnyardgrass plant response rating (0-100),[14]; [29],50
same,Corn plant response rating,"corn (Zea mays) [15]; 16 g ai/ha, 0 to 100 scale",0
same,Corn plant response rating (0-100),corn (Zea mays) [15]; [29],70
same,Blackgrass plant response rating,"[16]; 16 g ai/ha, 0 to 100 scale",0
same,Blackgrass plant response rating (0-100),[16]; [29],20
same,Ragweed plant response rating,"[17]; 16 g ai/ha, 0 to 100 scale",0
same,Ragweed plant response rating (0-100),[17]; [29],0
same,"Ryegrass, Italian plant response rating","[18]; 16 g ai/ha, 0 to 100 scale",0
same,"Ryegrass, Italian plant response rating (0-100)",[18]; [29],90
same,Wheat plant response rating,"[19]; 16 g ai/ha, 0 to 100 scale",10
same,Wheat plant response rating (0-100),[19]; [29],90
same,"Foxtail, Green plant response rating","[20]; 16 g ai/ha, 0 to 100 scale",0
same,"Foxtail, Green plant response rating (0-100)",[20]; [29],80
same,"Oat, Wild plant response rating","[21]; 16 g ai/ha, 0 to 100 scale",20
same,"Oat, Wild plant response rating (0-100)",[21]; [29],30
same,Kochia plant response rating,"kochia (Bassia scoparia) [22]; 16 g ai/ha, 0 to 100 scale",0
same,Kochia plant response rating (0-100),kochia (Bassia scoparia) [22]; [29],20
same,Soybean plant response rating,"soybean (Glycine max) [23]; 16 g ai/ha, 0 to 100 scale",20
same,Soybean plant response rating (0-100),soybean (Glycine max) [23]; [29],20
same,"Plant response rating, Rice (0 to 100 scale, 0 is no effect and 100 is complete control)",rice (Oryza sativa),65
same,"Plant response rating, Ducksalad (0 to 100 scale, 0 is no effect and 100 is complete control)",[24],65
same,"Plant response rating, Sedge, Umbrella (0 to 100 scale, 0 is no effect and 100 is complete control)",[25],95
same,"Plant response rating, Barnyardgrass (0 to 100 scale, 0 is no effect and 100 is complete control)",[26],90
